Results taken from US5723496A, “Method for prevention and treatment of harmful effects of intracellular acidosis” (priority 1995, dated 1998).
Several values for one entry are separate records, joined by “and”; a condition that tells them apart may be missing. Equal entries are not always repeated. Entries after “also recorded” stand apart in the source; their conditions may differ.

What was measured:
[1] = cited from earlier work
[2] = test system: adult mice exposed to anoxia; assay: survival of adult mice exposed to anoxia; type: in vivo, Adult Swiss mice; set-up: mortality, 2.5 minutes of anoxia / protection against 2.5 minutes anoxia: concentration or dose not given beside the values
Method: Adult Swiss mice (BK-1 males, 20 g) purchased from Bantin & Kingman, Fremont, Calif. were used. Each batch consisted of 10 mice. Within each batch five mice were selected randomly as experimental animals and the remaining five as controls. Experimental mice received daily intraperitoneal injections of 0.25 ml of GES (50 mg/ml) for 14 days.
At day 14, all mice within the same batch (5 experimental and 5 each of the […]) were placed in a specially designed chamber (26.5×24.5×21.0 cm). Anoxia/hypoxia was produced by infusion of pure nitrogen gas ([…]) into the chamber for 2.5 or 2.75 minutes. Anoxia/hypoxia was reversed immediately after these intervals by removing the chamber and placing the mice in a room air environment.
The results are shown in FIG. 1 and discussed in detail above.

[3] = observation of behavior and respiratory pattern; type: in vivo, Adult Swiss mice; conditions: mouse, in vivo, ip
Text: (§1) Adult Swiss mice (BK-1 male 20 g) purchased from Bantin & Kingman, Fremont, Calif., were used. Each batch consisted of 15 mice. Within each batch, five mice were selected randomly to be in the GES, taurine, or control group. A taurine group was included to serve as additional control.

[4] = set-up: species or system Adult Swiss mice; conditions: mouse, in vivo
Method: as §1
Arterial blood gas sample was collected by puncture of the lower portion of the descending aorta under pentobarbital anesthesia. Analysis was performed on a Corning 168 Blood Gas Analyzer.

[5] = in vivo; cited from earlier work
anaerobic glycolysis = assay: brain lactate after 2.5 min anoxia; type: in vivo, Adult Swiss mice
Method: as §1
Brain lactate levels were determined for mice exposed to 2.5 minutes of anoxia as follows. Animals were exposed to 2.5 minutes of anoxia under pentobarbital anesthesia. Immediately after the exposure, animals were immersed into a liquid nitrogen. The frozen brains were removed by chiseling and extracted as described above. Lactate concentration was determined using the lactate dehydrogenase reaction.

[6] = test system: brains of newborn rat pups; assay: brain intracellular pH and lactate of rat pups before and after 7.5 min anoxia (in vivo NMR); set-up: species or system Sprague-Dawley rats
Method: A Nicolet NMR System NT-200 (4.7T) was used for NMR experiments. Mice, rats or pups (Sprague-Dawley) were lightly anesthetized with ketamine hydrochloride, 50 mg/kg I.P., and placed in the NMR probe which contained an oval surface coil (one turn, 8×12 mm diameter) tunable to the resonance frequency of the proton and ^31 P. To eliminate signal contamination, scalp and temporal muscle were retracted. Field homogeneity was maximized by skimming on water proton signals. To produce anoxia, 100% nitrogen gas was rapidly infused (14 l/min) into the probe chamber. Anoxia could be reversed by infusion of air. Calibration studies using an oxygen meter (OM-1 Biological oxygen Meter, Micro-electrodes, Inc.) confirmed that this technique produced complete O2 depletion in the chamber or its reversal within 1 minute. ^1 H spectra were obtained at 199.97 MHz=z using a 1331-.tau.-2662 spin echo sequence with a .tau. delay of 68 ms (spectral width: 2 KHz, memory block: 4K, recycle time 2.7 seconds). The interpulse delay of the Hore sequence was adjusted so that the lactate resonance experienced least attenuation. ^31 P spectra were obtained at 80.99 MHz using a one pulse sequence (spectral width: 6 KHz, memory block: 4K, recycle time 2.7 seconds). The free induction decay (FID) like signals from remaining water proton signals were eliminated by applying sine function […]. The broad resonance with short T2 on ^31 P NMR spectra was removed using the convolution difference technique. Line broadening of 5 Hz and 30 Hz were applied as noise filter for proton and ^31 P spectra, respectively.
These animals were designated to be the experimental group. Physiological saline was administered to the control group of rats. Each group consisted of 10 animals.
On the last day of the administration, i.e. at day 10, the animals were each fixed in a special chamber set within a 4.7 T nuclear magnetic resonance apparatus. […]
The pH level and the lactate concentration in the cerebral cells before and after anoxia were measured by nuclear magnetic resonance spectroscopy using the procedure described above.

Row | SMILES | pKa value [1] | protection against anoxia / survival (in words) [2] | mortality, 2.5 minutes of anoxia ([2]; 14 days i.p. pretreatment) | protection against 2.5 minutes anoxia ([2]; FIG. 1) | observable adverse effects in behavior or respiratory pattern [3] | arterial pCO2 [4] | arterial pH [4] | arterial pO2 [4] | blood-brain barrier crossing (in words) [5] | Lactate (anaerobic glycolysis; Table 4, n = 5, post 2.5 min anoxia) | lactate levels post 2.5 min anoxia (in words) (anaerobic glycolysis; among three groups) | effect on pH depression in anoxia (in words) [6] | brain pH after anoxia ([6]; taurine 16 mmol/kg/day i.p., after 7.5 min anoxia) | brain pH before anoxia ([6]; taurine 16 mmol/kg/day i.p., day 10)
1 | O=S(=O)(O)CCN1CCOCC1 [MES, 2-(N-morpholino) ethane sulfonic acid, reference compound] | 6.1 | – | – | – | – | – | – | – | – | – | – | – | – | –
2 | Nc1ncnc2c1ncn2[C@@H]1O[C@H](COP(=O)(O)OP(=O)(O)OP(=O)(O)O)[C@@H](O)[C@H]1O [adenosine triphosphate (ATP), adenosine triphosphate] | 6.95 | – | – | – | – | – | – | – | – | – | – | – | – | –
3 | NCCS(=O)(=O)O [taurine, 2-amineethanesulfonic acid, reference compound] | – | no difference between taurine pretreated animals (column B) and saline pretreated animal | 40% and 60% | 40% | did not show any observable adverse effects | 41.26 ± 5.39 mmHg | 7.26 ± 0.04 | 97.7 ± 12.9 mmHg | does not cross the blood-brain barrier in adult mice; also recorded: does not cross the blood brain barrier freely in the adult mouse; also recorded: does cross the blood-brain barrier in newborns but it has no such effect in the adults | 0.48 ± 0.08 mM | essentially identical among the three groups | pH depression is considerably prevented | 7.0 | 7.3
